The record followed here is US20120046357A1, “Benzamide and Napthamide Derivatives Inhibiting Nuclear Factor-Kappa (B) - (NK-kB)” (Profectus Biosciences, Inc., priority 2009, published 2012).

In general, IC50 refers to the point on the concentration scale where inhibition reaches its midpoint. A high value points to weaker potency.

The subject of assay [1] is NF-κB. Description: 293/NFkB-luc reporter cell assay (TNF-α induced luciferase expression). Format: cell-based. Conditions: 293/NFkB-luc, 293 cells, pNF-κB-luc reporter, 2 h pretreatment, 20 ng/ml TNF-α 18 h. On the procedure:
(§1) Two reporter cell assays were used to determine the ability of the compound of Example 10 to inhibit NF-κB driven transcription. The first assay was a 293-cell based assay with a stably integrated pNF-κB-luc reporter plasmid containing 3 NF-κB promoter elements. The second assay was a 293-cell based assay with a stably integrated pTRH1-NF-κB-dscGFP reporter containing 4 NF-κB promoter elements. Cells were treated with 0, 0.2, 1, 10, 20 and 40 μM of the compound of Example 10 for 2 hours then were induced with 20 ng/ml TNF-α for 18 hours. Following the induction, luminescence or fluorescence was quantified using a Beckman-Coulter 2300 plate reader. […] These values represent the median value generated from three independent experiments. As a control, 0.5% DMSO treated and untreated cells were compared to verify that the compound of Example 10 had no effect on the expression of luciferase or in the readout of the assay. There was a slight decrease in the output from the assay in the DMSO treated population although it was not statistically significant. As a result of the controls, the decrease in activity in the drug treated samples was compared to the DMSO control sample.

The target in a further assay is T1, p65 (RelA) (Homo sapiens, UniProt Q04206).
T1 construct: purchased Active Motif
T1 sequence (Q04206 whole entry): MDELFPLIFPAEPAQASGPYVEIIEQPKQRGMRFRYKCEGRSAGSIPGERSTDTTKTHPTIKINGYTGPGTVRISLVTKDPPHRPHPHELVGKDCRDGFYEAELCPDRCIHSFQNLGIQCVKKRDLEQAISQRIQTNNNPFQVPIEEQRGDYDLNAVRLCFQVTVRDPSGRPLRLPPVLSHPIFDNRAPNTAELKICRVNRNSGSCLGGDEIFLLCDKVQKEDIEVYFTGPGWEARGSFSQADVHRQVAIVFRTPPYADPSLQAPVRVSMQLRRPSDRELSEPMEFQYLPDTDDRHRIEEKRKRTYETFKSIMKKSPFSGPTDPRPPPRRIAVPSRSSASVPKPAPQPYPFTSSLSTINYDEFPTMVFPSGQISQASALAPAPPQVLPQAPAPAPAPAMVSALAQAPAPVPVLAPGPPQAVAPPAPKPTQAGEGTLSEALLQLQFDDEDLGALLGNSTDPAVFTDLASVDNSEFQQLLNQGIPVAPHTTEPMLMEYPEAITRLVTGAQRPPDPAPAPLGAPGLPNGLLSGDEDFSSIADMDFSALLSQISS
Description: TransAM NF-κB family DNA binding ELISA, p65. Format: biochemical. Particulars: binding to NF-κB consensus oligonucleotide. As to the method: The binding activity of NF-κB heterodimer or homodimer subunits from activated nuclear extracts or purified recombinant NF-κB proteins exposed to the drug compounds was evaluated using the TransAM NF-κB Family binding ELISA (Active Motif). 3-5 μg of nuclear extracts from TNFα activated Hela or Raji cells (Active Motif) or 20 ng of purified recombinant proteins (p65 and p50 from Active Motif, p52 from Santa Cruz) were incubated for 1 hour at room temperature with 20 μL drug compounds diluted in Complete Lysis buffer without DTT. Treated samples were then transferred to 30 μL Complete Binding Buffer (with DTT) in microplate wells pre-coated with the NF-κB consensus oligonucleotide. […] The plate was incubated for 1 hour at room temperature with gentle shaking and then washed 3 times with 200 μL 1× Wash Buffer. NF-κB p65, p50, p52, RelB, or c-Rel subunits bound to the plate were detected with 100 μL of the primary antibody (diluted 1:1000 in 1× Antibody Buffer) specific for that subunit. The plate was incubated for 1 hour at room temperature and then washed 3 times with 200 μL 1× Wash Buffer. Next, 100 μL of a HRP conjugated goat anti-rabbit antibody (diluted 1:1,000 in 1× Antibody Buffer) was added to each well. The plate was incubated for 1 hour at room temperature and then washed 4 times with 200 μL 1× Wash Buffer. 100 μL of room temperature Developing Solution was added to each well. The reaction was allowed to develop for 2-10 minutes until a medium dark blue color developed (depending on the subunit activity in the lot of extract or lot of recombinant protein used) and then the reaction was stopped with 100 μL Stop Solution yielding a yellow color. Absorbance was recorded using a Becton-Dickinson DTX 880 Multimode Detector at 450 nm with a reference wavelength subtracted at 620 nm. FIGS. 2, 3 and 4 illustrate the effect of Example 10 on inhibiting RelA, RelB and c-Rel binding to NF-κB sites.
Background: In an ELISA, binding on a coated surface is turned into a signal by an enzyme label.

The test system of assay [2] is NF-κB. Description: NF-κB/293/GFP reporter cell assay (TNF-α induced GFP expression). Format: cell-based. Particulars: Homo sapiens, HEK293, 293 cells, pTRH1-NF-κB-dscGFP reporter, 2 h pretreatment, 20 ng/ml TNF-α 18 h; read-out: NF-KB/293/GFP EC50. On the procedure:
as §1

In assay [3] the test system is IL-6 release from RAW264.7 cells. Description: LPS-stimulated IL-6 release from RAW264.7 cells (ELISA). The class given is cell-based, mouse. Conditions: Mus musculus, RAW264.7, RAW264.7 cells, 2 h pretreatment, 1 μg/mL LPS 20-24 h; read-out: RAW 264.7 IL-6 release EC50. As to the method: RAW 264.7 cells were seeded at 4×10^4 cells per well n complete growth medium in 96 well white TC plates with clear bottoms one day prior to the assay. The next day the cells were washed once and 100 μL fresh growth media was added. Cells were pretreated with 0.5 μL from a 6 point 200× dilution series of the test compounds in DMSO for 2 hours. Following pretreatment with the drugs, the inflammatory response was induced by adding 5 μL of a 20 μg/mL solution of LPS (Sigma). The cells were incubated in the presence of the drugs and 1 μg/mL LPS for another 20-24 hours. Typically after treatment the total DMSO was […] of the culture volume and the final concentrations of the compounds were approximately: 40, 20, 10, 1, 0.2 and 0 μM depending on the MW of each compound. Modified dilution series were prepared as needed to get adequate dose response curves without changing the % DMSO. Samples were run in duplicate or triplicate and included DMSO treated control wells with and without LPS stimulation. Drugs with a known activity such as Parthenolide or DHMEQ were run as experimental controls. After 20-24 hours LPS activation, the media supernatant was collected from the cells and replaced with fresh media. The supernatant samples were cleared by centrifugation at 1,000×g for 5 minutes, transferred to fresh storage plates, and stored frozen at −30° C.
After determining the appropriate supernatant dilutions experimentally, mIL-6 levels in the supernatants were quantified using Quantikine™ mouse IL-6 immunoassay (R&D Systems) according to the manufacturer's protocol. […] diluted in Calibrator Diluent were added to 50 μL of Assay Diluent in microplate wells pre-coated with an anti-mouse IL-6 capture antibody. Controls included a calibrated positive IL-6 control sample, non-specific binding (NSB) wells containing Calibrator Diluent but no IL-6, and a recombinant mouse IL-6 standard dilution series (10-1000 pg/mL). The plates were incubated at room temperature for 2 hours with shaking and then washed 5 times with 400 μL 1× Wash Buffer. […] anti-mouse IL-6 antibody was added to each well to detect IL-6 captured on the plate. The plates were incubated at room temperature for 2 hours and then washed 5 times with 400 μL 1× Wash Buffer. Equal volumes of Color Reagents A and B were mixed and 100 μL of this HRP Substrate Solution was added to each well on the plate. The blue color was allowed to develop for 30 minutes and then the reaction was stopped using 100 μL of Stop Solution yielding a yellow color. Absorbance at 450 nm with a reference wavelength subtracted at 595 nm was recorded using a Becton-Dickinson DTX 880 Multimode Detector.
The concentration of mIL-6 in the unknown samples was determined from a curve-fit of the mIL-6 standard absorbance data and multiplying by the dilution factor. The maximum activity achieved in the absence of the inhibitor (DMSO+LPS treated wells) was arbitrarily given a value of 100%; likewise the minimum activity in the absence of the stimulant (no LPS) was assigned a value of 0%. Inhibition of the amount of mIL-6 cytokine released in the drug treated wells was calculated relative to the maximum activation in the DMSO+LPS treated control wells (ie. % inhibition=100−(drug+LPS treated)/(DMSO+LPS treated)). Dose response curves were used to determine the effective concentration to inhibit 50% of the mIL-6 cytokine released (IC50) by means of a SigmaPlot macro which fits a sigmoidal dose-response curve to the (log 10) μM concentration versus % inhibition. […] This technique yields an objective value for the IC50 provided that 50% inhibition was approached at the concentrations tested. FIG. 5 illustrates the effect of the compound of Example 10 on inhibiting IL-6 release.

Consider `O=C(NC1=CC(=O)C2OC2C1=O)c1c(O)ccc2ccccc12` (racemic) [Example 12, (±)-N-(2,5-dioxo-7-oxabicyclo[4.1.0]hept-3-en-3-yl)-2-hydroxy-1-naphthamide], for which the EC50 in the assay with NF-κB [1] came to 2.2 µM; with NF-κB [2], 3.6 µM; in assay [3] it was 0.14 µM. Besides, on p65 (RelA), the IC50 was 9.7 µM.

For the molecule `Cc1cc(Br)cc(C(=O)NC2=CC(=O)C3OC3C2O)c1O` (racemic) [Example 13, (±)-5-bromo-2-hydroxy-N-(2-hydroxy-5-oxo-7-oxabicyclo[4.1.0]hept-3-en-3-yl)-3-methylbenzamide], the EC50 in the assay on NF-κB [1] amounted to 21 µM; in the assay on NF-κB [2] it was 9.2 µM; in assay [3], 1.7 µM. At p65 (RelA), the IC50 is 8.7 µM.

`Cc1cc(Br)cc(C(=O)NC2=CC(=O)C3OC3C2=O)c1O` (racemic) [Example 14, (±)-5-bromo-N-(2,5-dioxo-7-oxabicyclo[4.1.0]hept-3-en-3-yl)-2-hydroxy-3-methylbenzamide]: the EC50 in the assay with NF-κB [1] was 2.9 µM; in the assay with NF-κB [2], 3.6 µM; in assay [3], 0.25 µM. The IC50 at p65 (RelA) worked out at 5.3 µM.

With `CN(C)c1ccc(C(=O)NC2=CC(=O)C3OC3C2=O)c(O)c1` (racemic) [Example 18, (±)-4-(dimethylamino)-N-(2,5-dioxo-7-oxabicyclo[4.1.0]hept-3-en-3-yl)-2-hydroxybenzamide], the EC50 was 2.1 µM with NF-κB [1], 3.1 µM with NF-κB [2] and 0.58 µM in assay [3]. Also, the IC50 on p65 (RelA) was found to be 26 µM.
